From US9249178B2, “Tricyclic nucleosides and oligomeric compounds prepared therefrom” (UNIVERSITÄT BERN, priority 2012, dated 2016) come the findings set out here.

In data set [1] the test system is complementary DNA. Briefly: Tm study of 10mer oligomeric compounds duplexed to DNA. Format: binding. The settings on record: 150 mM NaCl, 10 mM phosphate, 0.1 mM EDTA, pH 7; for ΔTm/mod (° C.) vs DNA: duplex with complementary DNA, compared to unmodified 10mer A01. The procedure: (§1) The relative ability of a chemically-modified oligomeric compound to bind to complementary nucleic acid strands, as compared to natural oligonucleotides, is measured by obtaining the melting temperature of a hybridization complex of said chemically-modified oligomeric compound with its complementary unmodified target nucleic acid. The melting temperature (Tm), a characteristic physical property of double helixes, denotes the temperature in degrees centigrade at which 50% helical versus coiled (unhybridized) forms are present. Tm (also commonly referred to as binding affinity) is measured by using the UV spectrum to determine the formation and breakdown (melting) of hybridization. Base stacking, which occurs during hybridization, is accompanied by a reduction in UV absorption (hypochromicity). Consequently a reduction in UV absorption indicates a higher Tm. Following standard automated DNA synthesis protocols oligomeric compounds were prepared comprising one or more tricyclic nucleosides for Tm studies. After cleavage from the solid support, the oligomeric compounds were purified by ion exchange HPLC and analyzed by LCMS using standard procedures. The Tm of the modified 10mer oligomeric compounds were compared to an unmodified 10mer DNA oligonucleotide when duplexed to either DNA or RNA. Tm's were determined using a Cary 100 Bio spectrophotometer with the Cary Win UV thermal program was used to measure absorbance vs. temperature. For the Tm experiments, the oligomeric compounds were prepared at a concentration of […] in a buffer of 150 mM NaCl, 10 mM phosphate, 0.1 mM EDTA at pH 7. The concentration determined at 85° C. was […] after mixing of equal volumes of selected oligomeric compound and complementary RNA or DNA. The oligomeric compounds were hybridized with a complementary RNA or DNA by heating the duplex to 90° C. for 5 minutes and then cooling to room temperature. Tm measurements were taken using a spectrophotometer while the duplex solution was heated in a cuvette at a rate of 0.5° C./min starting at 15° C. until the temperature was 85° C. Tm values were determined using Vant Hoff calculations (A260 vs temperature curve) using non self-complementary sequences where the minimum absorbance related to the duplex and the maximum absorbance related to the non-duplex single strand are manually integrated into the program.

Data set [2] deals with complementary RNA. As to the kind of experiment: Tm study of 10mer oligomeric compounds duplexed to RNA. Format: binding. The settings on record: 150 mM NaCl, 10 mM phosphate, 0.1 mM EDTA, pH 7; for ΔTm/mod (° C.) vs RNA: duplex with complementary RNA, compared to unmodified 10mer A01. As to the method: as §1

In the case of “AACTGTCACG (unmodified DNA) [A01, unmodified 10mer DNA oligonucleotide, phosphodiester linkages, reference compound]”, in data set [1], the “Tm duplexed with DNA” value amounted to 47.9 °C and the “ΔTm/mod (° C.) vs DNA” value is 0 °C. Further, in data set [2], the “Tm duplexed with RNA” value amounted to 48.3 °C and the “ΔTm/mod (° C.) vs RNA” value is 0 °C.
Turning to AACTGTbCACG [A02], the “ΔTm/mod (° C.) vs DNA” value in data set [1] is −0.9 °C. For the same substance, the “ΔTm/mod (° C.) vs RNA” value in data set [2] was “+0.4 °C”.
With “AACTGTdCACG (AACTGT_{d}CACG; as printed in the source, key not given here) [A03, 10mer phosphodiester DNA with one tricyclic nucleoside of subscript d, subscripts drawn in drawing 18]”, the “ΔTm/mod (° C.) vs DNA” value in data set [1] is “+0.5 °C”. In addition, in data set [2], the “ΔTm/mod (° C.) vs RNA” value is “+2.1 °C”.
Taken in the same sequence, the figures for AACTbGTCACG [A04] were “+0.1 °C” and “+2.4 °C”.
As for AACTbGTbCACG [A06], the “ΔTm/mod (° C.) vs DNA” value in data set [1] was −0.7 °C. Besides, the “ΔTm/mod (° C.) vs RNA” value in data set [2] is “+0.5 °C”.
As to AACTcGTcCACG [A07], in data set [1], the “ΔTm/mod (° C.) vs DNA” value was −1.0 °C. For the same substance, in data set [2], the “ΔTm/mod (° C.) vs RNA” value was “+1.3 °C”.
For the substance “AACTdGTCACG (AACT_{d}GTCACG; as printed in the source, key not given here) [A05, 10mer phosphodiester DNA with one tricyclic nucleoside of subscript d]”, the “ΔTm/mod (° C.) vs DNA” value in data set [1] was “+0.4 °C”. The “ΔTm/mod (° C.) vs RNA” value in data set [2] is “+2.4 °C”.
Taken in the same sequence, the figures for “AACTdGTdCACG (AACT_{d}GT_{d}CACG; as printed in the source, key not given here) [A08, 10mer phosphodiester DNA with two tricyclic nucleosides of subscript d]” were −0.6 °C and “+1.2 °C”.
As for “AACTeGTeCACG (AACT_{e}GT_{e}CACG; as printed in the source, key not given here) [A09, 10mer phosphodiester DNA with two tricyclic nucleosides of subscript e (tc^hdT)]”, the “ΔTm/mod (° C.) vs DNA” value in data set [1] is −13.0 °C. In addition, in data set [2], the “ΔTm/mod (° C.) vs RNA” value is −10.2 °C.
For “AACTfGTfCACG (AACT_{f}GT_{f}CACG; as printed in the source, key not given here) [A10, 10mer phosphodiester DNA with two tricyclic nucleosides of subscript f]”, in data set [1], the “ΔTm/mod (° C.) vs DNA” value is −2.0 °C. In addition, the “ΔTm/mod (° C.) vs RNA” value in data set [2] is “+1.3 °C”.
In the case of “AaAaCaTaGaTaCaAaCaGa [A11, reference compound]”, the “ΔTm/mod (° C.) vs DNA” value in data set [1] was “+1.3 °C”. In addition, in data set [2], the “ΔTm/mod (° C.) vs RNA” value is “+2.1 °C”.
On to AaAaCaTaGaTdCaAaCaGa [A12], for which the “ΔTm/mod (° C.) vs DNA” value in data set [1] is −2.8 °C. Also, the “ΔTm/mod (° C.) vs RNA” value in data set [2] is −0.6 °C.
In the case of AaAaCaTbGaTbCaAaCaGa [A14], the “ΔTm/mod (° C.) vs DNA” value in data set [1] is “+1.1 °C”. The “ΔTm/mod (° C.) vs RNA” value in data set [2] was “+2.0 °C”.
In the case of AaAaCaTcGaTcCaAaCaGa [A15], the “ΔTm/mod (° C.) vs DNA” value in data set [1] was “+1.1 °C”. Also, the “ΔTm/mod (° C.) vs RNA” value in data set [2] is “+2.0 °C”.
In the same order, the values of AaAaCaTdGaTaCaAaCaGa [A13] are −3.8 °C and −2.6 °C.
In the case of AaAaCaTdGaTdCaAaCaGa [A16], the “ΔTm/mod (° C.) vs DNA” value in data set [1] is “+1.1 °C”. For the same substance, the “ΔTm/mod (° C.) vs RNA” value in data set [2] was “+2.3 °C”.
